Test: effectiveness of biocides for optrode protection against biofouling
Settings: ppb concentrations

Compound: N#Cc1c(Cl)c(Cl)c(Cl)c(C#N)c1Cl [chlorothalonil]
- biocide effectiveness (optrode protection): effective even at ppb concentrations

Source: US6551583B2, “Antibiofouling method and apparatus for optical sensors” (Airak, Inc,, priority 2000, dated 2003)
